Results taken from US20180134683A1, “HETEROCYLCIC COMPOUNDS AS IDH2 INHIBITORS” (TELIGENE LTD., priority 2015, published 2018).
Values after ≈ are worked out from the molar mass of the structure shown. Read-outs that look alike come from different tables or passages of the source.

Assays:
BRAF (G464V) = BRAF (G464V) (Homo sapiens, UniProt P15056, G464V); assay: In vitro kinase assay (33P-ATP, P81 filter); type: biochemical; conditions: for remaining activity at 10 µM: 10 μM compound, 10 μM ATP
Protocol: (§1) These properties may be assesses, for example, using one or more of the procedures set out below: • An in vitro assay which determines the ability of a test compound to inhibit kinases. Conducts the kinase assay with the following condition and procedure: • Reagent: Base Reaction Buffer; 20 mM Hepes (pH 7.5), 10 mM MgCl2, 1 mM EGTA, 0.02% Brij35, 0.02 mg/ml BSA, 0.1 mM Na3VO4, 2 mM DTT, 1% DMSO.
(§2) • 1. Prepare indicated substrate in freshly prepared Base Reaction Buffer. • 2. Deliver any required cofactors to the substrate solution obtained in step 1. • 3. Deliver indicated kinase into the substrate solution prepared in step 2 and gently mix. • 4. Deliver compounds in DMSO into the kinase reaction mixture prepared in step 3. • 5. Deliver ^33P-ATP (specific activity 0.01 μCi/μl final) into the reaction mixture prepared in step 4 to initiate the reaction. • 6. Incubate kinase reaction for 120 min. at room temperature. • 7. Reactions are spotted onto P81 ion exchange paper (Whatman # 3698-915). • 8. Washing filters extensively in 0.75% Phosphoric acid. Compound was tested in single dose duplicate mode at a concentration of 10 μM, reactions were carried out at 10 μM ATP

AXL (R499C) = biological target: T1, AXL (R499C) (Homo sapiens, UniProt P30530, R499C); assay: In vitro kinase assay (33P-ATP, P81 filter); type: biochemical; conditions: for remaining activity at 10 µM: 10 μM compound, 10 μM ATP
T1 sequence (P30530 26-894 R499C): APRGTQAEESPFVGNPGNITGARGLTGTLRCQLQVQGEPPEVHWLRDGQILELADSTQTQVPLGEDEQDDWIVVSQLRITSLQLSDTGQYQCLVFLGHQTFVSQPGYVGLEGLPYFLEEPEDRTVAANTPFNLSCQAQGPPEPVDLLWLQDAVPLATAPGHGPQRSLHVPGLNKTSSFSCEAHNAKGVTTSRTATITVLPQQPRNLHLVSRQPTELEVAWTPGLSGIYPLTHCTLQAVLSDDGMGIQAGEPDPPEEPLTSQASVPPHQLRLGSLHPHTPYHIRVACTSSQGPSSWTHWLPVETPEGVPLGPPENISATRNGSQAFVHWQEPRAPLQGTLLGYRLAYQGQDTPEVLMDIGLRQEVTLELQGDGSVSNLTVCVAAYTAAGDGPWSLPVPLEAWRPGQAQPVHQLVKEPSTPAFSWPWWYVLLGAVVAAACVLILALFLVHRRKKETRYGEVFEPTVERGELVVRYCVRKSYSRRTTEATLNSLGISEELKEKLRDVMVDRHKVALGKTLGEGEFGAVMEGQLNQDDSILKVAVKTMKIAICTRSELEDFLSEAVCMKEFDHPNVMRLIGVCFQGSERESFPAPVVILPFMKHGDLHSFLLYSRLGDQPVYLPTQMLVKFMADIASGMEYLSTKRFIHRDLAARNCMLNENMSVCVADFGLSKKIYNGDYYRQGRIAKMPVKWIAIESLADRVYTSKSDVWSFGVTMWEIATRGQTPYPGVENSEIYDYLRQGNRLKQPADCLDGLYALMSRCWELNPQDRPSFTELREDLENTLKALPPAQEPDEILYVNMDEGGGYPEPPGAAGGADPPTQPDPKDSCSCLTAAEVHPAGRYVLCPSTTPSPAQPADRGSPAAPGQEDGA
Protocol: as §1, §2

c-MER (A708S) = biological target: T2, c-MER (A708S) (Homo sapiens, UniProt Q12866, A708S); assay: In vitro kinase assay (33P-ATP, P81 filter); type: biochemical; conditions: for remaining activity at 10 µM: 10 μM compound, 10 μM ATP
T2 sequence (Q12866 21-999 A708S): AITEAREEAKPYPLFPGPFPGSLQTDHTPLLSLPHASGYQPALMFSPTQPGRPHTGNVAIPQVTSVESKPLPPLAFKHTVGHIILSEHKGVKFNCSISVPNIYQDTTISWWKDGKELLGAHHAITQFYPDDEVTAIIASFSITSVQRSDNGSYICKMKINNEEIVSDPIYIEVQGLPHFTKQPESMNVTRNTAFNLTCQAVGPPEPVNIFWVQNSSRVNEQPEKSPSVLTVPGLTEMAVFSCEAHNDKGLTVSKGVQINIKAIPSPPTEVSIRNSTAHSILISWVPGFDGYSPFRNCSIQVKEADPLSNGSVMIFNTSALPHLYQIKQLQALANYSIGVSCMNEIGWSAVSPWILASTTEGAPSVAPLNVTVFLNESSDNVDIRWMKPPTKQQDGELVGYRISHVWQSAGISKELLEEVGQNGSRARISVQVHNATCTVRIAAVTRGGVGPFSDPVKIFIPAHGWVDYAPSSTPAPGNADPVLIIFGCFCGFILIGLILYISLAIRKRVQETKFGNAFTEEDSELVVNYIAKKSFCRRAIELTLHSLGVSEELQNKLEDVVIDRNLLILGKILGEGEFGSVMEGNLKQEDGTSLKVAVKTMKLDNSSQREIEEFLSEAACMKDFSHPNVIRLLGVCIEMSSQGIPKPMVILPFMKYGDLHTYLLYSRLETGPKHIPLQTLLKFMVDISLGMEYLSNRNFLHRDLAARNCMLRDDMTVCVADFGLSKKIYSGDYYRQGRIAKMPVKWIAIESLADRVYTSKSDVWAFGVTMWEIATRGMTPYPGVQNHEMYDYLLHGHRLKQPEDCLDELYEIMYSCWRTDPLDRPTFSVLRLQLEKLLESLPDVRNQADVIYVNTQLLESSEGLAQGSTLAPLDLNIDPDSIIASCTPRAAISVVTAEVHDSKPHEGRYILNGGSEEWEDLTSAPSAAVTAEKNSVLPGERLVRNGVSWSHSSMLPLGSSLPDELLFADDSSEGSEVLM
Protocol: as §1, §2

ALK (L1152 R) = ALK (L1152 R) (Homo sapiens, UniProt Q9UM73, L1152R); assay: In vitro kinase assay (33P-ATP, P81 filter); type: biochemical; conditions: for remaining activity at 10 µM: 10 μM compound, 10 μM ATP
Protocol: as §1, §2

IDH2 R140Q = biological target: T3, IDH2 R140Q (Homo sapiens, UniProt P48735, R140Q); assay: IDH2 enzymatic assay (cofactor depletion assay); type: biochemical
T3 sequence (P48735 40-452 R140Q): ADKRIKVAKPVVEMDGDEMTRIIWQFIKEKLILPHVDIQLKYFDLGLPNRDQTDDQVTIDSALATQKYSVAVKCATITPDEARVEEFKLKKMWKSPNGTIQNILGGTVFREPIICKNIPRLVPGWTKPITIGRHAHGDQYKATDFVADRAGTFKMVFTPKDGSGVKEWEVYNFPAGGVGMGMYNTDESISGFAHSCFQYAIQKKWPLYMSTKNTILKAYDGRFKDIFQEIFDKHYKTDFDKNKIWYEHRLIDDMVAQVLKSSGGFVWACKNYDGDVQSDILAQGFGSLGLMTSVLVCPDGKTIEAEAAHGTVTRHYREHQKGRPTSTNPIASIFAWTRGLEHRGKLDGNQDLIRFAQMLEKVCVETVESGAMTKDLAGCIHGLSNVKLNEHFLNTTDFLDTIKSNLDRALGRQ
Protocol: Enzymatic Assay. Compounds were assayed for IDH2 R140Q inhibitory activity through a cofactor depletion assay. […] The reaction was terminated by the addition of a second enzyme, diaphorase, and a corresponding substrate, resazurin. Diaphorase reduces resazurin to the highly fluorescent resorufin with the concomitant oxidation of NADPH to NADP, both halting the IDH2 reaction by depleting the available cofactor pool and facilitating quantitation of the amount of cofactor remaining after a specific time period through quantitative production of an easily detected fluorophore. […] The compound was then incubated for one hour at room temperature with the enzyme; before starting the IDH2 reaction with the addition of 10 μl of substrate mix containing 50 μM NADPH and 6.3 mM a-KG in the buffer described above.

[1] = Pharmacokinetic (PK) profile
[2] = Solubility measurement (HPLC); type: physicochemical; conditions: for solubility at 30 min: aqueous buffer, thermodynamic from solid, 25° C.
Protocol: Preparation of reference standard solution: 2 mg of Compound 17 or Compound 19 was added individually to 100 mL volumetric flask each. The compound was diluted with acetonitrile to 100 mL.
Preparation of sample solution: 2 mg of Compound 17 or Compound 19 was added individually to 2 mL eppendorf tube (EP), followed by addition of 1 mL of pH 7.0 or 4.0 buffer solution (20 mM). The solution was shook for 2 minutes and left for 30 minutes at 25° C. After standing for 30 minutes, precipitate was formed in the bottom of the EP. The solutions was filtered through 0.2 um membrane filter, and then diluted by 50 times with water.
The standard and sample solutions were injected into the HPLC on a Shim-Pack CLC-ODS C18 column (150mm×6.0mm, 5um) with the same volume. The mobile phase consisted of acetonitrile with 2% trichloromethane−20 mM KH2PO4 buffer (pH=7.0) at a flow rate of 1 mL/minutes (40:60). The detection wavelength is at 264 nm. Calculation: solubility of sample=the concentration of standard×Area of sample×50 /Area of standard.

[3] = duplicate 1, read-out: % Enzyme Activity (relative to DMSO controls) Data 1
[4] = duplicate 2, read-out: % Enzyme Activity (relative to DMSO controls) Data 2
[5] = IDH2 R140Q, one hour preincubation, 60 minutes reaction, read-out: Enzyme Inhibition IDH2
[6] = pH 4.0 buffer solution (20 mM), read-out: Solubility at pH 4.0
[7] = pH 7.0 buffer solution (20 mM), read-out: Solubility at pH 7.0

Chain of ALK (L1152 R) (Q9UM73 19-1620 L1152R): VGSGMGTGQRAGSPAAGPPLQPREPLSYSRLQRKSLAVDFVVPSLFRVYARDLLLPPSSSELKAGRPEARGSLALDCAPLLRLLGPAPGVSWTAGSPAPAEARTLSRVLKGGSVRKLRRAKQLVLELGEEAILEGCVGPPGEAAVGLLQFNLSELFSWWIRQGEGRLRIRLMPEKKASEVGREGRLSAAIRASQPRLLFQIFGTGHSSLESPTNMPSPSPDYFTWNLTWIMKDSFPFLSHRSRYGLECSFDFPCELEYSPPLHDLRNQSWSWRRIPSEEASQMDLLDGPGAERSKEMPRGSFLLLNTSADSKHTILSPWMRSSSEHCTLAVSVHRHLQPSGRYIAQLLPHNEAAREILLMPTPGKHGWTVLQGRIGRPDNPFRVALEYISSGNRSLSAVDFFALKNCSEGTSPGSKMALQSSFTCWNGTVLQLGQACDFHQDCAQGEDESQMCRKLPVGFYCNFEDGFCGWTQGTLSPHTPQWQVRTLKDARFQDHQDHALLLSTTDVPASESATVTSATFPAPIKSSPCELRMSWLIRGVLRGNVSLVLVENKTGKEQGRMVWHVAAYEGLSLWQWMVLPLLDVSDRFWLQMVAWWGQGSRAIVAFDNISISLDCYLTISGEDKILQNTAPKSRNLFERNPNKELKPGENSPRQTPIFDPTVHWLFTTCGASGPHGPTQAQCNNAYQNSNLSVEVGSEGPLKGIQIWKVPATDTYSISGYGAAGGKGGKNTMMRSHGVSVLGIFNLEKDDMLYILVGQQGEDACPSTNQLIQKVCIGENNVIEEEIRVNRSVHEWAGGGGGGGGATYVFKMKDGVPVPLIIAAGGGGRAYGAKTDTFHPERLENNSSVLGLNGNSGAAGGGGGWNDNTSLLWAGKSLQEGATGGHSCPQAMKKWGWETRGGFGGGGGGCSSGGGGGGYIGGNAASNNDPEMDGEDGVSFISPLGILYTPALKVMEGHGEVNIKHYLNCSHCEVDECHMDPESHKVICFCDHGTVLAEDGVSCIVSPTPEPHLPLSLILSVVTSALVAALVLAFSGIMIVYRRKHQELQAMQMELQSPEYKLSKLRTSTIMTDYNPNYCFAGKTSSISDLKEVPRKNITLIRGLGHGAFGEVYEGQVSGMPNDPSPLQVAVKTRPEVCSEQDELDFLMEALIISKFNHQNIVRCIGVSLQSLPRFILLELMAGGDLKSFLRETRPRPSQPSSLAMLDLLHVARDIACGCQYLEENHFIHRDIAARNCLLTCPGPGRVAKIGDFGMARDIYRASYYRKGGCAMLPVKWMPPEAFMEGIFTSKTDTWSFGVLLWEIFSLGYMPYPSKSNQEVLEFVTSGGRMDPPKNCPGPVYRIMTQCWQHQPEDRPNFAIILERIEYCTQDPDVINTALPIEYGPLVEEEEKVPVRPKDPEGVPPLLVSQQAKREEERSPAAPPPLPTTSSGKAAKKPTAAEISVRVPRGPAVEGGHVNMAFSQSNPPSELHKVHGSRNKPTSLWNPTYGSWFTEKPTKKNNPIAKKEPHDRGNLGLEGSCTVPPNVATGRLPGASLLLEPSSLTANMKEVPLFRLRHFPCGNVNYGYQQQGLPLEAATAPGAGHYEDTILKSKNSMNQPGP
Chain of BRAF (G464V) (P15056 whole entry G464V): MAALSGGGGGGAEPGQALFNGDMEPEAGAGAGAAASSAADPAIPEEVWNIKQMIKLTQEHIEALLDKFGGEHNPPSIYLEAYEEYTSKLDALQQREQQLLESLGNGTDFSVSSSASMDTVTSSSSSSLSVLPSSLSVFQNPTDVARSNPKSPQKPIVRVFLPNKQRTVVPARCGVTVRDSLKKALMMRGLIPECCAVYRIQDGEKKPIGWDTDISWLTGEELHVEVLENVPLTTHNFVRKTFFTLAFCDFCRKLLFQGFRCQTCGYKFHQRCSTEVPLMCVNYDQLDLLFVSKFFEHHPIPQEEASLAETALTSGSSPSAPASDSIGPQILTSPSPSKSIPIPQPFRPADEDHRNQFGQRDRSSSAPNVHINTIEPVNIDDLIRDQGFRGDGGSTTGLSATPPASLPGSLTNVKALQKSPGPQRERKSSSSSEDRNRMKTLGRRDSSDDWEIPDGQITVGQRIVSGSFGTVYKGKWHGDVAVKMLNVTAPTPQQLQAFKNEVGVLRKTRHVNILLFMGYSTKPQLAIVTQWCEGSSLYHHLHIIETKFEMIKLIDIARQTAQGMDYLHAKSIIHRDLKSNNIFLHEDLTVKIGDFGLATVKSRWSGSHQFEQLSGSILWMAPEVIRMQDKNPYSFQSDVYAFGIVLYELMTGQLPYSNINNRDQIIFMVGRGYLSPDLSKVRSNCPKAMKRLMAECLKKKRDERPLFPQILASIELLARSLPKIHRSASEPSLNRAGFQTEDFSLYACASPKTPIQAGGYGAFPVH

For CN1CCN(c2nc(Nc3ccnc(C(F)(F)F)c3)nc(-c3cccc(C(F)(F)F)n3)n2)CC1 [Compound 17, 4-(4-methylpiperazin-1-yl)-6-(6-(trifluoromethyl)pyridin-2-yl)-N-(2-(trifluoromethyl)pyridin-4-yl)-1,3,5-triazin-2-amine], which “safety profile compared with Compound 19 (in words)” value (Safety profile) is on record?
The value was “favorable safety profile”.

And the remaining activity at 10 µM (BRAF (G464V); [3])?
Its remaining activity at 10 µM is 69.9%.

And the remaining activity at 10 µM (BRAF (G464V); [4])?
The remaining activity at 10 µM was 68.9%.

What about the “activity against kinase (in words)” value (BRAF (G464V); panel of kinases) of the same molecule?
Its value is “active”.

What about the remaining activity at 10 µM (AXL (R499C); [3]) of the same molecule?
Its remaining activity at 10 µM is 58.2%.

What about the remaining activity at 10 µM (AXL (R499C); [4]) of the same molecule?
Its remaining activity at 10 µM is 58.1%.

What about the “activity against kinase (in words)” value (AXL (R499C); panel of kinases) of the same molecule?
The value was “active”.

And the remaining activity at 10 µM (c-MER (A708S); [3])?
Its remaining activity at 10 µM is 79.8%.

And the remaining activity at 10 µM (c-MER (A708S); [4])?
Its remaining activity at 10 µM is 79.5%.

What about the “activity against kinase (in words)” value (c-MER (A708S); panel of kinases) of the same molecule?
Its value is “active”.

What about the remaining activity at 10 µM (ALK (L1152 R); [3]) of the same molecule?
The remaining activity at 10 µM was 79.2%.

And the remaining activity at 10 µM (ALK (L1152 R); [4])?
The remaining activity at 10 µM was 78.9%.

What about the “activity against kinase (in words)” value (ALK (L1152 R); panel of kinases) of the same molecule?
Its value is “active”.

And the IC50 (IDH2 R140Q; [5])?
Its IC50 is 262 nM.

What about the “pharmacokinetic (PK) profile compared with Compound 19 (in words)” value [1] of the same molecule?
The value was “better pharmacokinecitc (PK)”.

And the solubility at 30 min [2, 6]?
Its solubility at 30 min is 123 µg/mL (≈ 254 µM).

What about the solubility at 30 min [2, 7] of the same molecule?
Its solubility at 30 min is 0.276 µg/mL (≈ 0.57 µM).

What about the “solubility compared with Compound 19 (in words)” value ([2]; pH=4.0) of the same molecule?
The value was “much higher solubility”.

What about the “solubility compared with Compound 19 (in words)” value ([2]; pH=7.0) of the same molecule?
The value was “better solubility”.

For CN(C)c1nc(Nc2ccnc(C(F)(F)F)c2)nc(-c2cccc(C(F)(F)F)n2)n1 [Compound 18, N^2,N^2-dimethyl-6-(6-(trifluoromethyl)pyridin-2-yl)-N^4-(2-(trifluoromethyl)pyridin-4-yl)-1,3,5-triazine-2,4-diamine], which IC50 (IDH2 R140Q; [5]) is on record?
The IC50 was 12.2 nM.

Which IC50 (IDH2 R140Q) does the source give for CC(C)(O)CNc1nc(Nc2ccnc(C(F)(F)F)c2)nc(-c2cccc(C(F)(F)F)n2)n1 [Compound 19, reference compound] here?
Its IC50 is 401 nM.

What about the solubility at 30 min [2, 6] of the same molecule?
Its solubility at 30 min is 1.59 µg/mL (≈ 3.36 µM).

And the solubility at 30 min [2, 7]?
The solubility at 30 min was 0.109 µg/mL (≈ 0.23 µM).
